One data set can be described thus: Penetration to human ELF. Type of data set: in vivo. The note with it: epithelial lining fluid (ELF).
Data set [1] deals with P. aeruginosa. Description: Initial MIC, microbroth dilution (CLSI), avibactam 4 mg/L. The class given is cell-based. Particulars: Pseudomonas aeruginosa. The method, then: (§1) All MIC determinations including those performed in the checkerboard assay were done in cation-adjusted Mueller-Hinton broth (purchased from Becton Dickinson, Oxford UK).
(§2) Initial MIC data were determined by microbroth dilution methods as recommended by CLSI (2012b). Checkerboards were made in accordance with the method given by Pillai et. al., ? Antimicrobial Combinations in Antibiotics, LABORATORY MEDICINE (Lorian Ed., 3rd Ed. (2003)) p. 365-440 as per standard microbroth dilution tests but with agents in combination. […] A final avibactam concentration of 4 mg/L was used throughout the study. Antibacterial agents were combined into microtitre plates using the Evolution III liquid handling system.
In general terms: In broth dilution the organism is exposed to a series of concentrations in liquid medium.

A further data set deals with K. pneumoniae. The data set is described as above. Type of data set: cell-based. The note with it: Klebsiella pneumoniae. The method, then:
as §1, §2

Data set [2] can be described thus: Serum and ELF pharmacokinetics of ceftazidime regimens (human simulated and directed ELF fT>MIC) in infected mice. Particulars: MICs of 32 μg/mL; ceftazidime directed ELF fT>MIC regimen. The class given is in vivo, female ICR mice. The method, then:
Confirmatory pharmacokinetic studies were undertaken in infected mice and pharmacodynamic analyses and an assessment of ELF fT>MIC was made from the resulting concentration-time profile.
(§3) It has been observed in surveillance studies that the MIC90 for ceftazidime-avibactam against P. aeruginosa is 8 μg/mL (10-12). Given this, there are few isolates with higher MICs and the number that would grow within the murine lung infection model is even less. […] Doses of the previous humanized regimen described above were […] throughout the dosing period and further pharmacokinetic studies were performed. […] Mice were euthanized and serum and BAL samples were collected, as described above, at predetermined times.

The subject of data set [3] is P. aeruginosa. Description: In vivo efficacy, ceftazidime directed ELF fT>MIC regimen, neutropenic lung infection model (ICR mice). Also noted: species or system Pseudomonas aeruginosa. The note with it: for Change log CFU Mean: 24 h. The method, then:
as §3
For these studies, 9 P. aeruginosa isolates were evaluated against the CAZ regimen in mice that yielded specific ELF fT>MIC. Doses were initiated 2 hours after inoculation of the test organisms ? and all doses were administered as 0.2 mL subcutaneous injections and consisted of three 8 hour dosing intervals (i.e. 24 hours). To serve as control animals, an additional group of mice were administered normal saline at the same volume, route, and frequency as the treatment regimen. The harvesting procedure for all study mice began with euthanization by CO2 exposure followed by cervical dislocation. After sacrifice, lungs were removed and individually homogenized in normal saline. Serial dilutions of the lung homogenate were plated on trypticase soy agar with 5% sheep blood for CFU determination. In addition to the above mentioned treatment and control groups, another group of 6 infected, untreated mice were harvested at the initiation of dosing and served as 0 h controls. Efficacy, designated as the change in bacterial density, was calculated as the change in log10 bacterial CFU obtained for treated mice after 24 h from that of that starting densities observed in 0 h control animals.

The test system of a further data set is Pseudomonas aeruginosa. Description: MIC of ceftazidime-resistant P. aeruginosa strains, microdilution according to ISO guidelines. The class given is cell-based. The procedure: Seven well-characterized ceftazidime-resistant Pseudomonas aeruginosa strains, obtained from a variety of clinically relevant sources, were used in the experiments as shown in Table 1. MICs were taken from an earlier in vitro checkerboard study (Berkhout & Mouton 2013 CAZ-AVI-M1-061) and were determined by microdilution according to the ISO-guidelines (ISO 2006). This method is CLSI compatible.
Seven well-characterized ceftazidime-resistant Pseudomonas aeruginosa strains, obtained from a variety of clinically relevant sources, were used in the experiments as shown in […]. MICs were determined in an earlier in vitro checkerboard study (AstraZeneca study report # CAZ-AVI-M1-061) and were determined by microdilution according to the ISO-guidelines (ISO 2006). This method is CLSI compatible.

Another data set deals with Gram-negative isolates. The data set is described as follows: MIC alone compared with MIC in presence of Cmax and 0.5×Cmax of vancomycin and linezolid, all Gram-negative isolates. The class given is cell-based. Particulars: with Cmax and 0.5×Cmax of vancomycin and linezolid. The procedure: as §2
The subject of data set [4] is P. aeruginosa. Description: In vivo efficacy, ceftazidime human simulated regimen, neutropenic lung infection model (ICR mice). Also noted: species or system Pseudomonas aeruginosa. Particulars: 24 h. The method, then: Groups of mice were administered the ceftazidime regimen beginning two hours after the initiation of infection. All doses were administered as 0.2 mL subcutaneous injections and consisted of three 8-hour dosing intervals (i.e. 24 hours). To serve as control animals, an additional group of mice were administered normal saline at the same volume, route, and frequency as the treatment regimen. Harvesting and processing of lungs from each animal was done as previously described and efficacy was defined as the change in bacterial density, calculated as the change in log10 bacterial CFU obtained for treated mice after 24 h from that of that starting densities observed in 0 h control animals.

“Also recorded” adds a separate entry of the source. Where two headings read alike, the source gives them in different places.

`NC(=O)[C@@H]1CC[C@@H]2CN1C(=O)N2OS(=O)(=O)[O-].[Na+]` [avibactam, [(2S,5R)-2-carbamoyl-7-oxo-1,6-diazabicyclo[3.2.1]octan-6-yl]hydrogen sulfate]: in “Penetration to human ELF”, the Kp is about 0.3.

For the compound `CC(C)(O/N=C(\C(=O)N[C@@H]1C(=O)N2C(C(=O)[O-])=C(C[n+]3ccccc3)CS[C@H]12)c1csc(N)n1)C(=O)O` [ceftazidime, (6R,7R)-7-[[(2Z)-2-(2-amino-1,3-thiazol-4-yl)-2-(1-hydroxy-2-methyl-1-oxopropan-2-yl)oxyiminoacetyl]amino]-8-oxo-3-(pyridin-1-ium-1-ylmethyl)-5-thia-1-azabicyclo[4.2.0]oct-2-ene-2-carboxylate pentahydrate], the MIC (as a rule, the smallest concentration in the dilution series that meets the test's criterion for growth inhibition) in the data set on P. aeruginosa [1] (isolate 16 P. aeruginosa Basal MICs, read-out: MIC) came to 1 µg/mL; in the data set on P. aeruginosa [1] (isolate 17 P. aeruginosa Derepressed AmpC, read-out: MIC), 8 µg/mL; with P. aeruginosa [1] (isolate 18 P. aeruginosa Derepressed AmpC, read-out: MIC) it was 64 µg/mL; with P. aeruginosa [1] (isolate 19 P. aeruginosa PER, read-out: MIC) it was 128 µg/mL; with P. aeruginosa [1] (isolate 20 P. aeruginosa KPC-2), 128 µg/mL; in the data set with P. aeruginosa [1] (isolate 21 P. aeruginosa KPC-2, read-out: MIC) it was 64 µg/mL. For the same compound, the MIC in the data set with K. pneumoniae (isolate 9 K. pneumoniae Basal MICs, read-out: MIC) amounted to 0.12 µg/mL; in the data set on K. pneumoniae (isolate 10 K. pneumoniae TEM-4, read-out: MIC) it was 32 µg/mL; in the data set on K. pneumoniae (isolate 11 K. pneumoniae CTX-M-15, read-out: MIC), 32 µg/mL; in the data set with K. pneumoniae (isolate 12 K. pneumoniae SHV-12, read-out: MIC) it was 64 µg/mL; in the data set on K. pneumoniae (isolate 13 K. pneumoniae KPC-3) it was 128 µg/mL; in the data set on K. pneumoniae (isolate 14 K. pneumoniae KPC-3, read-out: MIC), 16 µg/mL. In addition, the MIC with K. pneumoniae (isolate 15 K. pneumoniae KPC-2, read-out: MIC) turned out to be 64 µg/mL; in the data set with Pseudomonas aeruginosa (P. aeruginosa isolate no. 1, CAZ-AVI determined at 4 mg/L avibactam), 128 µg/mL; in the data set on Pseudomonas aeruginosa (P. aeruginosa isolate no. 11, CAZ-AVI determined at 4 mg/L avibactam), 128 µg/mL; in the data set with Pseudomonas aeruginosa (Pseudomonas aeruginosa), 128 µg/mL; with Pseudomonas aeruginosa (Pseudomonas aeruginosa, P. aeruginosa isolate no. 3, CAZ-AVI determined at 4 mg/L avibactam, read-out: MIC), 64 µg/mL; in the data set with Pseudomonas aeruginosa (Pseudomonas aeruginosa, P. aeruginosa isolate no. 7, CAZ-AVI determined at 4 mg/L avibactam, read-out: MIC), 64 µg/mL. In addition, the MIC in the data set with Pseudomonas aeruginosa (Pseudomonas aeruginosa, P. aeruginosa isolate no. 18, CAZ-AVI determined at 4 mg/L avibactam, read-out: MIC) stood at 32 µg/mL; in the data set on Pseudomonas aeruginosa (Pseudomonas aeruginosa, P. aeruginosa isolate no. 19, CAZ-AVI determined at 4 mg/L avibactam, read-out: MIC), 64 µg/mL. The “ELF fT>MIC” value in data set [2] is on record as 12%. Also, the “activity in neutropenic lung infection model” value with P. aeruginosa [3] (directed ELF fT>MIC regimen, isolates with MICs of 32 μg/mL) was “Activity was observed”; in the data set on P. aeruginosa [3] (in vivo) it was “Efficacy was variable; also recorded: little to no activity”. Besides, the “Change log CFU Mean” value in the data set with P. aeruginosa [3] (isolate PSA 968, control 0 h 5.98, 24 h 9.76) came out at 4.45 log CFU; in the data set on P. aeruginosa [3] (isolate PSA 1382, control 0 h 5.91, 24 h 8.64), 6.42 log CFU; with P. aeruginosa [3] (isolate PSA 1383, control 0 h 5.77, 24 h 7.29) it was 3.73 log CFU; with P. aeruginosa [3] (isolate PSA 1384, control 0 h 5.86, 24 h 7.61), 4.4 log CFU; with P. aeruginosa [3] (isolate PSA 1386, control 0 h 5.79, 24 h 9.67), 5.98 log CFU; in the data set with P. aeruginosa [3] (isolate PSA 1387, control 0 h 6.39, 24 h 9.45), 4.23 log CFU. Besides, the “Change log CFU Mean” value is 5.54 log CFU in the data set on P. aeruginosa [3] (isolate PSA 1388, control 0 h 5.86, 24 h 8.39); 6.3 log CFU in the data set on P. aeruginosa [3] (isolate PSA 1389, control 0 h 5.68, 24 h 9.67); 5.96 log CFU in the data set on P. aeruginosa [3] (isolate PSA 1394, control 0 h 5.58, 24 h 7.73); 6.42 log CFU with P. aeruginosa [4] (isolate PSA 1-25, control 0 h 6.21, 24 h 10.01); 6.48 log CFU in the data set with P. aeruginosa [4] (isolate PSA 3-9, control 0 h 6.45, 24 h 7.77); 3.57 log CFU in the data set on P. aeruginosa [4] (isolate PSA 4-32, control 0 h 5.56, 24 h 9.34). For the same compound, the “Change log CFU Mean” value in the data set on P. aeruginosa [4] (isolate PSA 4-36, control 0 h 6.53, 24 h 9.72) is 5.01 log CFU; with P. aeruginosa [4] (isolate PSA 4-84, control 0 h 6.16, 24 h 9.66), 4.88 log CFU; in the data set on P. aeruginosa [4] (isolate PSA 8-16, control 0 h 5.93, 24 h 9.94), 5.38 log CFU; with P. aeruginosa [4] (isolate PSA 22, control 0 h 5.99, 24 h 9.15), 4.83 log CFU; with P. aeruginosa [4] (isolate PSA 28-19, control 0 h 6.46, 24 h 9.8) it was 5.07 log CFU; in the data set with P. aeruginosa [4] (isolate PSA 37-8, control 0 h 6.02, 24 h 8.26), 3.8 log CFU. Moreover, the “MIC alone and in combination” value in the data set on Gram-negative isolates is reported as “remained within one doubling dilution in all cases”.

Values taken from patent publication US20150374673A1, “Combination Therapy for the Treatment of Nosocomial Pneumonia” (priority 2013, published 2015).
